Data published in patent US10111842B2, “Eutectic solvents and uses thereof” (UNIVERSITY OF OSLO, priority 2014, dated 2018).

Legend:
[1] = test system: C. albicans (ATCC CRM-10231); test: Antifungal toxicity studies, blue light 27 J/cm^2 or dark (Example 8); assay type: cell-based, Candida albicans; conditions: for reduction in viable C. albicans: 2.1 M fructose, […] xylitol, […] sucrose, 5 M choline chloride diluted 1:1 or 1:100, dark or light, p>0.05
Method: Briefly, the components of each NADES (see Table 13) were mixed and dissolved in a round flask with 50 ml of warm water ( 50° C.) before evaporation of the solvent at 45° C. for 15 min with a rotatory evaporator. The pure […] 35 and NADES 39 were mixed undiluted or after dilution 1:50 with phosphate buffered saline (PBS, Lonza, Verviers, Belgium) with the yeast suspension (1:1) in the toxicity studies. […] The concentrations of the excipients were the same as in the respective NADES after evaporation of unbound water. The solutions were diluted totally 1:1 or 1:100 with PBS and yeast suspension in the toxicity studies. […] The overnight cultures were centrifuged (4000 g, 22° C., 10 min), the medium replaced and diluted with PBS to OD600 0.1.

[2] = test system: S. epidermidis (ATCC 35984); test: Phototoxicity studies, blue light 9.5 J/cm^2 or dark (Example 7); assay type: cell-based, Staphylococcus epidermidis; conditions: for % survival (9.5 J/cm^2): Dilution 1:200, blue light; for % survival (9.5 J/cm^2) / % survival (dark): ±SD, n = 4; for % survival (dark): Dilution 1:200, no irradiation
Method: (§1) The overnight cultures were centrifuged (4000 g, 22° C., 10 min), the medium replaced and diluted with PBS to OD600 0.03. The bacterial suspensions were mixed 1:1 with the samples described in the previous paragraph. A volume of 200 μl from each sample was transferred to the first and seventh well on each row on a 96 well plate (Nunclon sterile 96 well plate with lid, Thermo Fischer Scientific, Waltham, Mass.). Two identical plates were made each time, one for light treatment and one for dark controls. The plates containing E. faecalis or S. aureus samples were incubated for 10 min (37° C.), irradiated with blue light for 10 min (corresponding to 9.5 J/cm^2±10%) and incubated again for 10 min (37° C.). The plates containing E. coli samples were incubated for 30 min (37° C.), irradiated with blue light for 30 min (corresponding to 27 J/cm^2±10%) and incubated again for 30 min (37° C.). The plates containing the dark controls were treated similarly, but covered with aluminium foil during the irradiation period and placed beside the irradiation chamber. […] After treatment, the samples were diluted according to the 6×6 drop plate procedure, modified to 4×4 (each treatment was performed with four parallels). A volume of 15 μl from each dilution was then plated onto TSB agar plates, left to dry for a few minutes and incubated overnight (37° C.). Viable colony forming units (CFU)/ml were calculated by counting the CFUs, multiplying with the dilution factor and dividing by the application volume.
(§2) The concentrations were adjusted give a final concentration of 1-20 nM porphyrin in the bacterial suspension after dilution with PBS (see Table 9). Aqueous solutions of 2.7 M citric acid, 2.3 M xylitol, 2.5 M sucrose, 5 M choline chloride and pure NADES, respectively, were used to investigate the toxicity of the individual compounds and NADES without a photosensitiser. The concentrations of the excipients were the same as in the respective NADES after evaporation of unbound water. The solutions were diluted totally 1:200 (or more) in the bacterial studies.
(§3) The treatments were performed with four parallels.
(§4) Gram-positive bacteria are generally considered to be more susceptible to photodynamic therapy than Gram-negative bacteria. Therefore, S. epidermidis was incubated for 10 min (37° C.), irradiated with blue light for 10 min (9.5 J/cm^2) and incubated again for 10 min while K. pneumoniae and P. aeruginosa were incubated for 30 min (37° C.), irradiated with blue light for 30 min (27 J/cm^2) and incubated again for 30 min.

[3] = test system: P. aeruginosa (ATCC 9027); test: Phototoxicity studies, blue light 27 J/cm^2 or dark (Example 7); assay type: cell-based, Pseudomonas aeruginosa; conditions: for % survival (27 J/cm^2) / % survival (dark): ±SD, n = 4; for toxicity to P. aeruginosa: individual components of NADES 35, dilution 1:800
Method: as §1, §2, §3, §4

[4] = test system: K. pneumoniae (ATCC 31844); test: as above; assay type: cell-based, Klebsiella pneumoniae; conditions: ±SD, n = 4; for % survival (27 J/cm^2): Dilution 1:200, blue light; for % survival (dark): Dilution 1:200, no irradiation
Method: as §1, §2, §3, §4

[5] = test system: Escherichia coli (ATCC 25922); test: Bacterial studies, blue light 27 J/cm^2 or dark, drop plate CFU (Examples 4-6); assay type: cell-based; conditions: for surviving colony forming units / surviving colony forming units per ml: E. coli
Method: (§5) Briefly, the components were mixed and dissolved in warm water (˜50° C.) before evaporation of the solvent at 45° C. for 15 min with a rotatory evaporator. The resulting NADES were transferred to polypropylene tubes with a tight cap. The individual components of each NADES were also prepared as solutions in MilliQ water in a concentration similar to the concentration in the final NADES preparation. All samples were diluted 1:1 with bacterial suspension (OD600 0.03) or 1:50, 1:100 and 1:200 with phosphate buffered saline (PBS, pH 7.4, Lonza, Verviers, Belgium) prior to dilution 1:1 with the bacterial suspension immediately before the bacterial studies.
as §1
(§6) Briefly, the components of each NADES (see Table 7) were mixed and dissolved in a round flask with 50 ml of warm water (˜50° C.) before evaporation of the solvent at 45° C. for 15 min with a rotatory evaporator. TMAP (Frontier Scientific, Inc., Logan, Utah, USA) was then added to each NADES. […] The final concentration of TMAP was 1 nM. Samples of TMAP were also prepared in purified water (MilliQ) to be 1 nM after dilution 1:200 with PBS (pH 7.4, Lonza, Verviers, Belgium) or with a 6.8 mM citric acid solution (pH ˜4) and bacterial suspension.
(§7) TCPP (Frontier Scientific, Inc., Logan, Utah, USA) was added to each NADES. […] The final TCPP concentrations were 0.5 nM-1 μM. Samples of TCPP were also prepared in ethanol to be 1 nM-1 μM after dilution 1:200 with PBS (pH 7.4, Lonza, Verviers, Belgium) or with a 6.8 mM citric acid solution (pH ˜4) and bacterial suspension.

[6] = test system: Staphylococcus aureus (strain Newman); test: Bacterial studies, blue light 9.5 J/cm^2 or dark, drop plate CFU (Examples 4-6); assay type: cell-based
Method: as §5, §1, §6, §7

[7] = test system: Enterococcus faecalis (ATCC 19433); test: as above; assay type: cell-based
Method: as §5, §1, §6, §7

[8] = 1 nM TMAP in the citric acid solution, light
[9] = 1 nM TMAP in the diluted NADES 14, light

OC[C@H]1O[C@@](CO)(O[C@H]2O[C@H](CO)[C@@H](O)[C@H](O)[C@H]2O)[C@@H](O)[C@@H]1O [Sucrose]
reduction in viable C. albicans [1]: No significant reduction | % survival (9.5 J/cm^2) [2]: 134 ± 14% | % survival (dark) [2]: 113 ± 5% | % survival (27 J/cm^2) ([3]; Dilution 1:200, blue light): 98 ± 19% | % survival (dark) ([3]; Dilution 1:200, no irradiation): 204 ± 22% | % survival (27 J/cm^2) [4]: 84 ± 18% | % survival (dark) [4]: 124 ± 9%

O=C(O)CC(O)(CC(=O)O)C(=O)O [Citric acid]
toxicity / eradication of E. coli ([5]; dilution 1:1, with and without blue light): very toxic | phototoxicity to E. coli ([5]; dilution 1:100 (up to 1:100) with PBS, blue light): killed all the bacteria present | reduction in viable C. albicans after incubation in the dark ([1]; 2.7 M diluted 1:1): slight, though significant, reduction | reduction in viable C. albicans after light treatment ([1]; 2.7 M diluted 1:1, 27 J/cm^2 blue light): 73±8% | toxicity / eradication of S. aureus ([6]; dilution 1:1 with bacterial suspension): complete eradication | toxicity to S. aureus ([6]; dilution 1:100): not toxic anymore | toxicity to E. faecalis ([7]; 2.7 M solution, dilution ratios 1:1 up to 1:100): toxic | toxicity to E. faecalis ([7]; dilution 1:200, total treatment 30 min): did not reduce the number of viable colony forming units | % survival (9.5 J/cm^2) [2]: 0.1 ± 0.0% | % survival (dark) [2]: 0.7 ± 0.3% | % survival (27 J/cm^2) ([3]; Dilution 1:400, blue light): 6 ± 2% | % survival (dark) ([3]; Dilution 1:400, no irradiation): 37 ± 9% | toxicity to P. aeruginosa [3]: not toxic at all | % survival (27 J/cm^2) [4]: 145 ± 2% | % survival (dark) [4]: 38 ± 18%

OC[C@@H](O)[C@H](O)[C@@H](O)CO [Xylitol]
toxicity of NADES 26 components to E. coli ([5]; choline chloride 5 M, xylitol […]): non-toxic | reduction in viable C. albicans [1]: No significant reduction | % survival (9.5 J/cm^2) [2]: 118 ± 12% | % survival (dark) [2]: 98 ± 10% | % survival (27 J/cm^2) ([3]; Dilution 1:200, blue light): 143 ± 17% | % survival (dark) ([3]; Dilution 1:200, no irradiation): 140 ± 19% | toxicity to P. aeruginosa [3]: not toxic at all | % survival (27 J/cm^2) [4]: 74 ± 17% | % survival (dark) [4]: 72 ± 19%

O=C(CO)[C@@H](O)[C@H](O)[C@H](O)CO [fructose, D-(−)-fructose]
reduction in viable C. albicans [1]: No significant reduction | toxicity of individual NADES component to E. faecalis [7]: not toxic

tetra-(4-trimethylanilinum)-porphine tetrachloride [TMAP]
viable E. coli after photodynamic treatment ([5]; 1 nM TMAP in NADES 35, dilution 1:800 with PBS): no viable | phototoxicity to E. coli ([5]; 1 nM TMAP in PBS, p>0.05): not enough to make this porphyrin significantly phototoxic | phototoxicity to E. coli ([5]; 1 nM TMAP in neutral NADES 26 (1:200), p>0.05): not enough to make this porphyrin significantly phototoxic | phototoxicity to E. coli ([5]; 1 nM TMAP in neutral NADES 39 (1:100), p>0.05): not enough to make this porphyrin significantly phototoxic | surviving colony forming units [5, 8]: 0.2% | surviving colony forming units per ml [5, 8]: 10 000 colony forming units per ml | surviving colony forming units [5, 9]: 0.2% | surviving colony forming units per ml [5, 9]: 10 000 colony forming units per ml | toxicity to C. albicans [1]: not toxic | increase of phototoxicity compared to the citric acid solution ([7]; 1 nM TMAP in NADES 14 (final dilution 1:400), E. faecalis): 35 times | photoinactivation of S. epidermidis [2]: did not result in complete photoinactivation | phototoxicity to P. aeruginosa ([3]; 1 nM or 5 nM TMAP in PBS): not phototoxic
